Test results reported in patent publication US7022687B1, “Combination of loteprednol and antihistamines” (Asta Medica AG, priority 1999, dated 2006).

Experiments:
[1] = test system: young domestic pigs actively sensitized with an antigen (extract from Ascaris suum); assay: Allergen-induced nasal secretion (rhinorrhea) in Ascaris-sensitized young domestic pigs; type: in vivo; details: for Inhibition of nasal secretion: intranasal Ascaris allergen challenge, pigs
Method: In vivo investigations were carried out on young domestic pigs actively sensitized with an antigen (extract from Ascaris suum). Three weeks later, they were exposed to allergen challenge, which was carried out by intranasal instillation of the Ascaris extract. This local intranasal allergen challenge leads to a very great increase in the nasal secretion (rhinorrhea). The amount of secretion was determined gravimetrically.

TNFα release = assay: LPS-induced TNFα release in diluted human blood (ELISA); type: cell-based
Method: In vitro, investigations on the influencing of the release of the proinflammatory cytokine TNFα in human blood of various donors diluted 1:5 were carried out. The stimulation was effected using lipopolysaccharide (LPS) from Salmonella abortus equi (10 μg/ml) over the course of 24 h at 37° C. and 5% CO2 in an incubator. The TNFα release was determined using an ELISA, based on antibodies from Pharmingen.

[2] = cited from earlier work

In the case of `CN1CCCC(n2nc(Cc3ccc(Cl)cc3)c3ccccc3c2=O)CC1` (stereo not drawn) [Azelastine], the “Inhibition of nasal secretion” value ([1]; azelastine 10 μg/nostril) is reported as 15%, the “Inhibition of the allergically induced nasal hypersecretion (in words)” value ([1]; used alone at 10 or 20 μg/nostril) is reported as “only marginal inhibition” and the “LPS-induced TNFα release (in words)” value (TNFα release; administered alone) is reported as “remains virtually unchanged”. It also gave an inhibition at 10 µM (TNFα release; azelastine 10 μmol/l, human blood diluted 1:5, LPS 10 μg/ml, 24 h) of 2%.
In the case of `CCOC(=O)O[C@]1(C(=O)OCCl)CC[C@H]2[C@@H]3CCC4=CC(=O)C=C[C@]4(C)[C@H]3[C@@H](O)C[C@@]21C` [Loteprednol etabonate], the Water solubility [2] is given as “virtually water-insoluble”.
With `CCOC(=O)O[C@]1(C(=O)OCCl)CC[C@H]2[C@@H]3CCC4=CC(=O)C=C[C@]4(C)[C@H]3[C@@H](O)C[C@@]21C` [Loteprednol] the “Inhibition of nasal secretion” value ([1]; loteprednol 20 μg/nostril) was 8%, the inhibition at 0.001 µM (TNFα release; loteprednol 0.001 μmol/l, human blood diluted 1:5, LPS 10 μg/ml, 24 h) was 1% and the inhibition at 0.01 µM (TNFα release; loteprednol 0.01 μmol/l, human blood diluted 1:5, LPS 10 μg/ml, 24 h) was 2%. It also gave an inhibition at 0.03 µM (TNFα release; loteprednol 0.03 μmol/l, human blood diluted 1:5, LPS 10 μg/ml, 24 h) of 8%.
